The values below come from ChEMBL document CHEMBL3046945, “Enantioselective Antifungal Activity of Pefurazoate against Pathogens of Rice Seed Diseases” (J Pestic Sci, 2001).

One may read the inhibition as the share of the control response that was lost under treatment.

SMILES strings stand for the structures.

One assay deals with Bipolaris oryzae. The assay can be described thus: Antifungal activity against Bipolaris oryzae assessed as diameter of mycelial colony after 3 to 4 days by agar dilution method. It is filed as functional, organism-based. A general note: Agar dilution tests growth on a series of plates holding different concentrations.
A further assay deals with Pyricularia oryzae. The assay can be described thus: Antifungal activity against Magnaporthe oryzae assessed as diameter of mycelial colony after 3 to 4 days by agar dilution method. The format is functional, organism-based.
For assay [1], the system named is Fusarium fujikuroi. The assay can be described thus: Antifungal activity against benzimidazole-sensitive Fusarium fujikuroi assessed as diameter of mycelial colony after 3 to 4 days by agar dilution method. It is filed as functional, organism-based.
Assay [2] deals with Fusarium fujikuroi. Nature of the assay: Inhibition of ergosterol biosynthesis in benzimidazole-sensitive Fusarium fujikuroi assessed as incorporation of [2-14C] acetate into total lipids at 7.35 ppm by autoradiography. The format is functional.
Assay [3] concerns Fusarium fujikuroi. Nature of the assay: Inhibition of ergosterol biosynthesis in benzimidazole-sensitive Fusarium fujikuroi assessed as incorporation of [2-14C] acetate into ergosterol at 7.35 ppm by autoradiography. It is filed as functional.
Assay [4] has as its system Fusarium fujikuroi. The assay can be described thus: Inhibition of ergosterol biosynthesis in benzimidazole-sensitive Fusarium fujikuroi assessed as incorporation of [2-14C] acetate into lipid fraction at 7.35 ppm by autoradiography. The format is functional.
In assay [5] the test system is Fusarium fujikuroi. The assay can be described thus: Inhibition of ergosterol biosynthesis in benzimidazole-sensitive Fusarium fujikuroi assessed as incorporation of [2-14C] acetate into 24-methylenedihydrolanosterol at 7.35 ppm by autoradiography. The format is functional.
The test system of assay [6] is Fusarium fujikuroi. Nature of the assay: Inhibition of ergosterol biosynthesis in benzimidazole-sensitive Fusarium fujikuroi assessed as incorporation of [2-14C] acetate into lipid fraction at 0.24 ppm by autoradiography. The format is functional.
In assay [7] the test system is Fusarium fujikuroi. Nature of the assay: Inhibition of ergosterol biosynthesis in benzimidazole-sensitive Fusarium fujikuroi assessed as incorporation of [2-14C] acetate into total lipids at 0.24 ppm by autoradiography. It is filed as functional.
Assay [8] has as its system Fusarium fujikuroi. The assay can be described thus: Inhibition of ergosterol biosynthesis in benzimidazole-sensitive Fusarium fujikuroi assessed as incorporation of [2-14C] acetate into 24-methylenedihydrolanosterol at 0.24 ppm by autoradiography. The format is functional.
The test system of assay [9] is Fusarium fujikuroi. Nature of the assay: Inhibition of ergosterol biosynthesis in benzimidazole-sensitive Fusarium fujikuroi assessed as incorporation of [2-14C] acetate into ergosterol at 0.24 ppm by autoradiography. The format is functional.

As to `C=CCCCOC(=O)C(CC)N(Cc1ccco1)C(=O)n1ccnc1` (racemic) [Pefurazoate], the EC50 in the assay on Bipolaris oryzae is listed as 0.84 ppm; with Pyricularia oryzae, 0.89 ppm; with Fusarium fujikuroi [1], 0.49 ppm.

`C=CCCCOC(=O)[C@@H](CC)N(Cc1ccco1)C(=O)n1ccnc1` [(R)-(+)-pefurazoate]: the inhibition at 7.35 ppm in the assay with Fusarium fujikuroi [2] came to 1.6%; in the assay with Fusarium fujikuroi [3], 1.3%; in the assay on Fusarium fujikuroi [4], 84.5%; with Fusarium fujikuroi [5], 14.2%. For the same molecule, the values for the EC50 with Bipolaris oryzae, in the assay on Pyricularia oryzae and in the assay with Fusarium fujikuroi [1] were 3.89 ppm, 3.21 ppm and 7.35 ppm, respectively.

`C=CCCCOC(=O)[C@H](CC)N(Cc1ccco1)C(=O)n1ccnc1` [(S)-(-)-pefurazoate]: the EC50 in the assay with Bipolaris oryzae is 0.41 ppm; in the assay on Pyricularia oryzae, 0.61 ppm; in the assay on Fusarium fujikuroi [1] it was 0.24 ppm. Also, the inhibition at 0.24 ppm came to 84.8% in the assay with Fusarium fujikuroi [6], 1.3% in the assay with Fusarium fujikuroi [7], 13.9% in the assay with Fusarium fujikuroi [8] and 1.3% in the assay with Fusarium fujikuroi [9].
